Test results taken from patent US8609695B2, “Methods of treating and/or suppressing insulin resistance” (Endorecherche, Inc., priority 1999, dated 2013).

How the values were obtained:
[1] = system: lean and obese Zucker male rats; assay: Energy balance and lipid-lipoprotein metabolism in Zucker male rats (Example 8A); assay type: in vivo, Rattus norvegicus; settings: for Lipoprotein lipase activity White retroperitoneal / Lipoprotein lipase activity soleus / Plasma glucose / Plasma insulin / Plasma total cholesterol / Plasma triglycerides / Weight gain: 2.5 mg/kg orally once daily, 14 days; for decrease of body weight gain / reduction of plasma insulin: 2.5 mg/kg/day
Method: The objective of this study was to determine the effect of EM-652.HCl on energy balance and lipid-lipoprotein metabolism in lean and obese Zucker male rats. For this purpose, EM-652.HCl (2.5 mg/kg) was administered orally (gavage) once daily for 14 days to intact lean and obese Zucker male rats.
d) Diet: During the acclimation period, rats received a commercial rodent diet (Purina, #5075) and tap water ad libitum. During study period, rats received the following diet (diet #3) composed of (g/100 g): Starch, 31.2; Dextrose, 31.2; Casein, 20.0; Corn oil, 6.4; dl-Methionine, 0.3; Vitamin mix, 1.0; AIN-76 mineral mix, 4.9; Fiber, 5.0.
Test groups: Sixteen lean and sixteen obese intact male rats were assigned to 4 groups of 8 rats for conduct of the study outlined below
(§1) Administration of the tested compound or vehicle started on Day 1 of the study. The tested compound EM-652.HCl was given as suspension in 0.4% methylcellulose by oral gavage (0.5 ml/gavage/rat) once daily for 14 days. Rats from control groups received the vehicle alone (0.5 ml/gavage/rat) for the same time period.
During the acclimation period, animals were weighed one day prior to the start of dosing for randomization. Then, rats were weighed on the first dosing day and every 2 days thereafter as well as on the day of necropsy. Body weights were recorded with a precision of 1 g.
(§2) Following an approximative 6-hour fasting period, animals were necropsied (approximately 30 hours after the last dosing). They were anesthesized with ketamine-xylazine and blood drawn by cardiac punction.
Blood lipids (Total cholesterol (CHOL) and Triglycerides (TG)) and glucose were measured on frozen plasma samples using the Boehringer Mannheim Diagnostic Hitachi 911 Analyzer (Boehringer Mannheim Diagnostic Laboratory Systems). Circulating hormones and substrates (Leptin, Insulin) were measured on frozen plasma samples with the following kits: • Leptin: Linco RLA kit • Insulin: Linco RIA kit Organs and Tissues Collected:
The retroperitoneal adipose tissue and the soleus (muscle) were collected and frozen in liquid nitrogen for further determination of lipoprotein lipase (LPL) activity. The prostate, testes (right and left together) and right seminal vesicle (empty of fluid) were weighed. The right seminal vesicles were discarded.

[2] = system: lean and obese Zucker female rats; assay: Energy balance and lipid-lipoprotein metabolism in Zucker female rats (Example 8B); assay type: in vivo, Rattus norvegicus; settings: for Lipoprotein lipase activity White retroperitoneal / Lipoprotein lipase activity soleus / Plasma glucose / Plasma insulin / Plasma total cholesterol / Plasma triglycerides / Weight: 2.5 mg/kg orally once daily, 14 days
Method: The objective of this study was to determine the cffect of EM-652.HCl on energy balance and lipid-lipoprotein metabolism in lean and obese Zucker female rats. For this purpose, EM-652.HCl (2.5 mg/kg) was administered orally (gavage) once daily for 14 days to intact lean and obese Zucker female rats.
d) Diet: • During the acclimation period, rats received a commercial rodent diet (Purina, #5075) and tap water ad libitum. During study period, rats received the following diet (diet #3) composed of (g/100 g): Starch, 31.2; Dextrose, 31.2; Casein, 20.0; Corn oil, 6.4; dl-Methionine, 0.3; Vitamin mix, 1.0; AIN-76 mineral mix, 4.9; Fiber, 5.0. Rats were fasted (with access to water only) around 07 h00 the morning of their necropsy day. Randomixation:
Sixteen lean and sixteen obese intact female rats were assigned to 4 groups of 8 rats for conduct of the study outlined below.
as §1
During the acclimation period, animals were weighed two days prior to the start of dosing for randomization. Then, rats were weighed on day 1 of the study and every 2 days during the study period as well as on the day of necropsy. Body weights were recorded with a precision of 1 g.
as §2
Blood lipids (Total cholesterol (CHOL) and Triglycerides (TG)) and glucose were measured on frozen plasma samples using the Boehringer Mannheim Diagnostic Hitachi 911 Analyzer (Boehringer Mannheim Diagnostic Laboratory Systems). Circulating hormones and substrates (Leptin, Insulin, corticosterone) were measured on frozen plasma samples with the following kits: • Leptin: Linco RIA kit • Insulin: Linco RIA kit Organs and Tissues Collected
The retroperitoneal adipose tissue and the soleus (muscle) were collected and frozen in liquid nitrogen for further determination of lipoprotein lipase (LPL) activity.

Compound: CC1=C(c2ccc(O)cc2)[C@H](c2ccc(OCCN3CCCCC3)cc2)Oc2cc(O)ccc21.Cl [EM-652.HCl, (S)-(+)-7-hydroxy-3-(4′-hydroxyphenyl)-4-methyl-2-(4″-(2′″-piperidino-ethoxy)phenyl)-2H-1-benxopyran hydrochloride]
- Lipoprotein lipase activity White retroperitoneal ([1]; lean Zucker male rats): 1701 ± 348 μU/g protein
- Lipoprotein lipase activity soleus ([1]; lean Zucker male rats): 69.5 ± 8.4 μU/g protein
- Plasma glucose ([1]; lean Zucker male rats): 9.35 ± 0.51 mmol/L
- Plasma insulin ([1]; lean Zucker male rats): 0.062 ± 0.005 nmol/L
- Plasma total cholesterol ([1]; lean Zucker male rats): 1.18 ± 0.09 mmol/L
- Plasma triglycerides ([1]; lean Zucker male rats): 1.52 ± 0.13 mmol/L
- Weight gain ([1]; lean Zucker male rats): 44.9 ± 3.5 g
- decrease of body weight gain ([1]; lean male Zucker rats): 38%
- reduction of plasma insulin ([1]; lean male Zucker rats): 35%
- Lipoprotein lipase activity White retroperitoneal ([1]; obese Zucker male rats): 7046 ± 1185 μU/g protein
- Lipoprotein lipase activity soleus ([1]; obese Zucker male rats): 58.1 ± 4.6 μU/g protein
- Plasma glucose ([1]; obese Zucker male rats): 11.84 ± 0.62 mmol/L
- Plasma insulin ([1]; obese Zucker male rats): 0.475 ± 0.087 nmol/L
- Plasma total cholesterol ([1]; obese Zucker male rats): 2.28 ± 0.25 mmol/L
- Plasma triglycerides ([1]; obese Zucker male rats): 7.16 ± 1.06 mmol/L
- Weight gain ([1]; obese Zucker male rats): 71.6 ± 3.3 g
- decrease of body weight gain ([1]; obese male Zucker rats): 35%
- reduction of plasma insulin ([1]; obese male Zucker rats): 57%
- Lipoprotein lipase activity White retroperitoneal ([2]; lean Zucker female rats): 1349 ± 246 μU/g protein
- Lipoprotein lipase activity soleus ([2]; lean Zucker female rats): 60.8 ± 11.1 μU/g protein
- Plasma glucose ([2]; lean Zucker female rats): 9.60 ± 0.41 mmol/L
- Plasma insulin ([2]; lean Zucker female rats): 0.063 ± 0.012 nmol/L
- Plasma total cholesterol ([2]; lean Zucker female rats): 1.57 ± 0.14 mmol/L
- Plasma triglycerides ([2]; lean Zucker female rats): 0.83 ± 0.07 mmol/L
- Weight ([2]; lean Zucker female rats): 154 ± 5 g
- reduction of plasma insulin ([2]; lean female Zucker rats, 2.5 mg/kg/day): 48%
- Lipoprotein lipase activity White retroperitoneal ([2]; obese Zucker female rats): 3819 ± 485 μU/g protein
- Lipoprotein lipase activity soleus ([2]; obese Zucker female rats): 36.6 ± 7.1 μU/g protein
- Plasma glucose ([2]; obese Zucker female rats): 11.70 ± 0.47 mmol/L
- Plasma insulin ([2]; obese Zucker female rats): 0.515 ± 0.091 nmol/L
- Plasma total cholesterol ([2]; obese Zucker female rats): 3.27 ± 0.97 mmol/L
- Plasma triglycerides ([2]; obese Zucker female rats): 22.20 ± 4.44 mmol/L
- Weight ([2]; obese Zucker female rats): 291 ± 9 g
- effect on plasma insulin ([2]; obese female Zucker rats, 2.5 mg/kg/day): no significant effect
